# pIC50: −log10 of the molar value. Read-outs that look alike come from different tables or passages of the source.
# Legend:
# [1] = Pharmacokinetic screening in dogs, oral administration, plasma LC-MS/MS; settings: dog, plasma, po, 0.3 mg/kg
# [2] = biological target: human sEH (Homo sapiens (Human), UniProt P34913); assay: Inhibition of human soluble epoxide hydrolase (IC50; one of three substrate methods); format: biochemical;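 also: enzyme expressed in baculovirus and affinity-purified, assays run in triplicate, with substrate and read-out differing among the three methods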
# human sEH, sequence (P34913 whole entry): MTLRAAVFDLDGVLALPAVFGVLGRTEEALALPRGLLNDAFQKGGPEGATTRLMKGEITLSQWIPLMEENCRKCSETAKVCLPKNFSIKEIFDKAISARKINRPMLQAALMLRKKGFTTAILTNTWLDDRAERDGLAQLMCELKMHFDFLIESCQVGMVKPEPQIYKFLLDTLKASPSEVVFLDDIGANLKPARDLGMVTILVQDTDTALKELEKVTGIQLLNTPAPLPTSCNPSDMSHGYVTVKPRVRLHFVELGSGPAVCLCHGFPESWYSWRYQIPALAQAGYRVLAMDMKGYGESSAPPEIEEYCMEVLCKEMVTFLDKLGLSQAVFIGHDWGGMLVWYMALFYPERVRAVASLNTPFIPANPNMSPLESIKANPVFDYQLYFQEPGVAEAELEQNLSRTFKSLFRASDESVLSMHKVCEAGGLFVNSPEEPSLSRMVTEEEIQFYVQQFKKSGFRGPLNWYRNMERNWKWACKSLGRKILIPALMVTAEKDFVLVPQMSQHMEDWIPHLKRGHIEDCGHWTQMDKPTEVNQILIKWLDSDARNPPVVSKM
SMILES,AUC [1] [µM·h],pIC50 ([2]; recombinant human sEH),pIC50 [2]
"COC(=O)N1CCC(NC(=O)NC23CC4CC(CC(C4)C2)C3)CC1 [Compound 1702, 4-(3-Adamantan-1-yl-ureido)-piperidine-1-carboxylic acid methyl ester]",0.09,9.05,
"CC(=O)N1CCC(NC(=O)NC2CCCCCC2)CC1 [Compound 1645, 1-(1-Acetyl-piperidin-4-yl)-3-cycloheptyl-urea]",3.68,,7.56
CC(=O)N1CCC(NC(=O)CC23CC4CC(CC(C4)C2)C3)CC1 [Compound 1642],0.0967,6.56,
"CCCC(=O)N1CCC(CNC(=O)NC23CC4CC(CC(C4)C2)C3)CC1 [Compound 1120, N-((1-butyrylpiperidin-4-yl)methyl)-N′-(adamant-1-yl)urea]",,8.17,
"CS(=O)(=O)N1CCC(NC(=O)NC23CC4CC(CC(C4)C2)C3)CC1 [Compound 1701, 1-Adamantan-1-yl-3-(1-methanesulfonyl-piperidin-4-yl)-urea]",0.0817,8.85,
O=C(CC12CC3CC(CC(C3)C1)C2)NC1CCN(C(=O)C(F)(F)F)CC1 [Compound 1644],,7.55,
"CCC(=O)N1CCC(CNC(=O)NC23CC4CC(CC(C4)C2)C3)CC1 [Compound 1162, N-((1-propanoylpiperidin-4-yl)methyl)-N′-(adamant-1-yl)urea]",,8.06,
"COC(=O)CCC(=O)N1CCC(NC(=O)NC23CC4CC(CC(C4)C2)C3)CC1 [Compound 1205, 4-[4-(3-Adamantan-1-yl-ureido)-piperidin-1-yl]-4-oxo-butanoic acid methyl ester]",,,8.05
O=C(NCC1CCN(C(=O)c2ccncc2)CC1)NC12CC3CC(CC(C3)C1)C2 [Compound 1435],,8.27,
"O=C(O)CCC(=O)N1CCC(NC(=O)NC23CC4CC(CC(C4)C2)C3)CC1 [Compound 1503, 4-[4-(3-Adamantan-1-yl-ureido)-piperidin-1-yl]-4-oxo-butanoic acid]",,6.59,
"O=C(NC1CCN(C(=O)c2ccccc2)CC1)NC1CCN(C(=O)c2ccccc2)CC1 [Compound 1605, 1,3-Bis-(1-benzoyl-piperidin-4-yl)urea]",,8.32,
"O=C(NC1CCN(C(=O)c2ccncc2)CC1)NC12CC3CC(CC(C3)C1)C2 [Compound 1433, N-(1-(pyridine-4-carbonyl)piperidin-4-yl)-N′-(adamant-1-yl)urea]",,,8.77
"CCCCCCCCCCCCNC(=O)Nc1ccc2[nH]cnc2c1 [Compound 1568, 1-(1H-Benzoimidazol-5-yl)-3-dodecyl-urea]",,5.30,
"O=C(NCc1cccnc1)Oc1cccc(-c2ccccc2)c1 [Compound 1559, Pyridin-3-ylmethyl-carbamic acid biphenyl-3-yl ester]",,4.64,
"O=C(NC1CCN(C(=O)c2ccc(C(=O)O)cc2)CC1)NC12CC3CC(CC(C3)C1)C2 [Compound 1523, 4-[4-(3-Adamantan-1-yl-ureido)-piperidine-1-carbonyl]-benzoic acid]",,,8.48
"COC(=O)CCCC(=O)N1CCC(CNC(=O)NC23CC4CC(CC(C4)C2)C3)CC1 [Compound 1212, 5-{4-[(3-Adamantan-1-yl-ureido)-methyl]-piperidin-1-yl}-5-oxo-pentanoic acid methyl ester]",,8.47,
"O=C(NCC1CCN(C(=O)c2ccc(C(=O)O)cc2)CC1)NC12CC3CC(CC(C3)C1)C2 [Compound 1522, 4-{4-[(3-Adamantan-1-yl-ureido)-methyl]-piperidine-1-carbonyl}-benzoic acid]",,7.93,
"COC(=O)c1cccc(C(=O)N2CCC(NC(=O)NC34CC5CC(CC(C5)C3)C4)CC2)c1 [Compound 1203, 3-[4-(3-Adamantan-1-yl-ureido)-piperidine-1-carbonyl]-benzoic acid methyl ester]",,,8.96
"O=C(NCc1ccncc1)Oc1cccc(-c2ccccc2)c1 [Compound 1557, Pyridin-4 ylmethyl-carbamic acid biphenyl-3-yl ester]",,4.94,
